Experimental data as given in patent publication US12115152B2, “Pan-RAF kinase inhibitor and use thereof” (HEFEI INSTITUTES OF PHYSICAL SCIENCE, CHINESE ACADEMY OF …, priority 2019, dated 2024).

Key:
Type in all cases: cell-based
[1] = Effect on proliferation of cells, Cell Titer-Glo, 72 hours; details: Mus musculus, BaF3 cells
Experimental: The compounds of the present invention were tested for their effect on growth of cancer cells (Table 2), to further evaluate the compounds herein for their inhibitory effect on proliferation of cancer cells and their selectivity in inhibiting proliferation of cancer cells. […]
In the example, solutions of the test compound in DMSO at different concentrations (0.000508 μM, 0.00152 μM, 0.00457 μM, 0.0137 μM, 0.0411 μM, 0.123 μM, 0.370 μM, 1.11 μM, 3.33 μM, 10 μM) was added to the above cells respectively. The cells were incubated for 72 hours. The number of viable cells was detected with a Cell Titer-Glo (Promega, USA) Cell Viability Assay Kit by quantifying the ATP in viable cells. The values of GI50 (unit) of the compounds of the present invention against each of the test cells were determined.

[2] = system: melanoma cell A375 (expressing BRAF-V600E mutant kinase); assay: Effect on proliferation of cancer cells, Cell Titer-Glo, 72 hours; details: Homo sapiens, A-375
Experimental: (§1) The compounds of the present invention were tested for their effect on growth of cancer cells (Table 2), to further evaluate the compounds herein for their inhibitory effect on proliferation of cancer cells and their selectivity in inhibiting proliferation of cancer cells.
(§2) The cells were incubated for 72 hours. The number of viable cells was detected with a Cell Titer-Glo (Promega, USA) Cell Viability Assay Kit by quantifying the ATP in viable cells. The values of GI50 (unit) of the compounds of the present invention against each of the test cells were determined.

[3] = system: colorectal cancer cell COLO205 (expressing BRAF-V600E mutant kinase); assay: as above; details: Homo sapiens, COLO 205
Experimental: as §1, §2

[4] = system: mouse BaF3-FL-BRAF-V600E (stably expressing full-length BRAF-V600E mutant kinase); assay: as above
Experimental: as §1, §2

GI50 [2] | GI50 [3] | GI50 [4] | Structure (SMILES) | GI50 [1]
57 nM | 53 nM | 7.5 nM | Cc1ccc(NC(=O)c2cccc(C(C)C#N)c2)cc1-n1cc(-c2cncc(-c3ccncc3)c2)cn1 (stereo not drawn) [Example 6, N-(3-(4-([3,4′-bipyridyl]-5-yl)-1H-pyrazol-1-yl)-4-methylphenyl)-3-(1-cyanoethyl)benzamide] | 780 nM
81 nM | 62 nM |  | Cc1ccc(NC(=O)c2cccc(C(F)(F)F)c2)cc1-n1cc(-c2cncc(-c3ccncc3)c2)cn1 [Example 13, N-(3-(4-([3,4′-bipyridyl]-5-yl)-1H-pyrazol-1-yl)-4-methylphenyl)-3-(trifluoromethyl)benzamide] | 1300 nM
330 nM | 670 nM |  | Cc1cn(-c2cc(C(=O)Nc3ccc(C)c(-n4cc(-c5cnc6[nH]ccc6c5)cn4)c3)cc(C(F)(F)F)c2)cn1 [Example 167, N-(3-(4-(1H-pyrrolo[2,3-b]pyrid-5-yl)-1H-pyrazol-1-yl)-4-methylphenyl)-3-(4-methyl-1H-imidazol-1-yl)-5-(trifluoromethyl)benzamide] | 3900 nM
270 nM | 280 nM |  | Cc1ccc(NC(=O)c2cccc(C(F)(F)F)c2)cc1-n1cc(-c2cnc3[nH]ccc3c2)cn1 [Example 170, N-(3-(4-(1H-pyrrolo[2,3-b]pyrid-5-yl)-1H-pyrazol-1-yl)-4-methylphenyl)-3-(trifluoromethyl)benzamide] | 4800 nM
110 nM | 360 nM |  | Cc1ccc(NC(=O)c2cccc(C(C)(C)C#N)c2)cc1-n1cc(-c2cnc3[nH]ccc3c2)cn1 [Example 171, N-(3-(4-(1H-pyrrolo[2,3-b]pyrid-5-yl)-1H-pyrazol-1-yl)-4-methylphenyl)-3-(2-cyanoprop-2-yl)benzamide] | 2600 nM
250 nM | 140 nM |  | Cc1ccc(NC(=O)c2cccc(C(C)C#N)c2)cc1-n1cc(-c2cnc3[nH]ccc3c2)cn1 (stereo not drawn) [Example 179, N-(3-(4-(1H-pyrrolo[2,3-b]pyrid-5-yl)-1H-pyrazol-1-yl)-4-methylphenyl)-3-(1-cyanoethyl)benzamide] | 3600 nM
500 nM | 400 nM |  | Cc1ccc(NC(=O)c2ccc3cccnc3c2)cc1-n1cc(-c2cnc3[nH]ccc3c2)cn1 [Example 182, N-(3-(4-(1H-pyrrolo[2,3-b]pyrid-5-yl)-1H-pyrazol-1-yl)-4-methylphenyl)quinoline-7-carboxamide] | 2000 nM
300 nM | 150 nM |  | Cc1ccc(NC(=O)c2cccc(-c3ccsc3)c2)cc1-n1cc(-c2cnc3[nH]ccc3c2)cn1 [Example 183, N-(3-(4-(1H-pyrrolo[2,3-b]pyrid-5-yl)-1H-pyrazol-1-yl)-4-methylphenyl)-3-(thien-3-yl)benzamide] | 3400 nM

Second part, the compound before the results:

Structure (SMILES) | GI50 [2] | GI50 [3] | GI50 [4] | GI50 [1]
Cc1ccc(NC(=O)c2cccc(C(F)(F)F)c2)cc1-n1cc(-c2cncc(-c3cccnc3)c2)cn1 [Example 2, N-(3-(4-([3,3′-bipyridyl]-5-yl)-1H-pyrazol-1-yl)-4-methylphenyl)-3-(trifluoromethyl)benzamide] | 36 nM | 48 nM |  | 1700 nM
Cc1ccc(NC(=O)c2cccc(C(C)(C)C#N)c2)cc1-n1cc(-c2cncc(-c3cccnc3)c2)cn1 [Example 3, N-(3-(4-([3,3′-bipyridyl]-5-yl)-1H-pyrazol-1-yl)-4-methylphenyl)-3-(2-cyanoprop-2-yl)benzamide] | 21 nM | 10 nM | < 0.3 nM | 1000 nM
Cc1ccc(NC(=O)c2cccc(C(C)(C)C#N)c2)cc1-n1cc(-c2cncc(-c3ccncc3)c2)cn1 [Example 5, N-(3-(4-([3,4′-bipyridyl]-5-yl)-1H-pyrazol-1-yl)-4-methylphenyl)-3-(2-cyanoprop-2-yl)benzamide] | 19 nM | 17 nM | 1.9 nM | 510 nM
Cc1ccc(NC(=O)c2ccc(C)c(C(F)(F)F)c2)cc1-n1cc(-c2cncc(-c3ccncc3)c2)cn1 [Example 7, N-(3-(4-([3,4′-bipyridyl]-5-yl)-1H-pyrazol-1-yl)-4-methylphenyl)-4-methyl-3-(trifluoromethyl)benzamide] | 86 nM | 150 nM | 12 nM | 2400 nM
Cc1ccc(NC(=O)c2ccc(CN3CCN(C)CC3)c(C(F)(F)F)c2)cc1-n1cc(-c2cncc(-c3ccncc3)c2)cn1 [Example 8, N-(3-(4-([3,4′-bipyridyl]-5-yl)-1H-pyrazol-1-yl)-4-methylphenyl)-4-((4-methylpiperazin-1-yl)methyl)-3-(trifluoromethyl)benzamide] | 27 nM | 28 nM | 10 nM | 310 nM
Cc1ccc(NC(=O)c2ccc(CN3CCN(C)CC3)c(C(F)(F)F)c2)cc1-n1cc(-c2cncc(N3CCOCC3)c2)cn1 [Example 12, N-(4-methyl-3-(4-(5-morpholinopyrid-3-yl)-1H-pyrazol-1-yl)phenyl)-4-((4-methylpiperazin-1-yl)methyl)-3-(trifluoromethyl)benzamide] | 97 nM | 45 nM | 7.4 nM | 210 nM
Cc1ccc(NC(=O)c2cccc(C(C)(C)C#N)c2)cc1-n1cc(-c2cncc(-c3ccc(N4CCN(C)CC4)cc3)c2)cn1 [Example 30, N-(4-methyl-3-(4-(5-(4-(4-methylpiperazin-1-yl)phenyl)pyrid-3-yl)-1H-pyrazol-1-yl)phenyl)-3-(2-cyanoprop-2-yl)benzamide] | 47 nM | 52 nM | 10 nM | 
Cc1ccc(NC(=O)c2cccc(C(F)(F)F)c2)cc1-n1cc(-c2cncc(-c3ccc(N4CCN(C)CC4)cc3)c2)cn1 [Example 31, N-(4-methyl-3-(4-(5-(4-(4-methylpiperazin-1-yl)phenyl)pyrid-3-yl)-1H-pyrazol-1-yl)phenyl)-3-(trifluoromethyl)benzamide] | 100 nM | 98 nM |  | 
Cc1ccc(NC(=O)c2cccc(C(C)(C)C#N)c2)cc1-n1cc(-c2cncc(OCCCN3CCOCC3)c2)cn1 [Example 47, 3-(2-cyanoprop-2-yl)-N-(4-methyl-3-(4-(5-(3-morpholinopropoxy)pyrid-3-yl)-1H-pyrazol-1-yl)phenyl)benzamide] | 17 nM | 15 nM | 1.3 nM | 600 nM
Cc1ccc(NC(=O)c2cccc(C(C)(C)C#N)c2)cc1-n1cnc(-c2cncc(N3CCOCC3)c2)c1 [Example 109, 3-(2-cyanoprop-2-yl)-N-(4-methyl-3-(4-(5-morpholinopyrid-3-yl)-1H-imidazol-1-yl)phenyl)benzamide] | 60 nM | 110 nM |  | 3800 nM
Cc1ccc(NC(=O)c2ccc(CN3CCN(C)CC3)c(C(F)(F)F)c2)cc1-n1cc(-c2cnc3[nH]ccc3c2)cn1 [Example 168, N-(3-(4-(1H-pyrrolo[2,3-b]pyrid-5-yl)-1H-pyrazol-1-yl)-4-methylphenyl)-4-((4-methylpiperazin-1-yl)methyl)-3-(trifluoromethyl)benzamide] | 46 nM | 28 nM |  | 3300 nM
Cc1ccc(NC(=O)c2ccc(CN3CCN(C)CC3)c(C(F)(F)F)c2)cc1-n1cnc(-c2cnc3[nH]ccc3c2)c1 [Example 174, N-(3-(4-(1H-pyrrolo[2,3-b]pyrid-5-yl)-1H-imidazol-1-yl)-4-methylphenyl)-4-((4-methylpiperazin-1-yl)methyl)-3-(trifluoromethyl)benzamide] | 160 nM | 110 nM |  | 960 nM
Cc1ccc(NC(=O)c2ccc(C)c(C(F)(F)F)c2)cc1-n1cnc(-c2cnc3[nH]ccc3c2)c1 [Example 175, N-(3-(4-(1H-pyrrolo[2,3-b]pyrid-5-yl)-1H-imidazol-1-yl)-4-methylphenyl)-4-methyl-3-(trifluoromethyl)benzamide] | 100 nM | 150 nM |  | 1600 nM
Cc1ccc(NC(=O)c2cccc(C(C)(C)C#N)c2)cc1-n1cnc(-c2cnc3[nH]ccc3c2)c1 [Example 176, N-(3-(4-(1H-pyrrolo[2,3-b]pyrid-5-yl)-1H-imidazol-1-yl)-4-methylphenyl)-3-(2-cyanoprop-2-yl)benzamide] | 89 nM | 130 nM |  | 920 nM
Cc1ccc(NC(=O)c2cccc(C(F)(F)F)c2)cc1-n1cnc(-c2cnc3[nH]ccc3c2)c1 [Example 177, N-(3-(4-(1H-pyrrolo[2,3-b]pyrid-5-yl)-1H-imidazol-1-yl)-4-methylphenyl)-3-(trifluoromethyl)benzamide] | 120 nM | 65 nM |  | 2700 nM
Cc1ccc(NC(=O)c2cc(C(C)(C)C)on2)cc1-n1cnc(-c2cnc3[nH]ccc3c2)c1 [Example 178, N-(3-(4-(1H-pyrrolo[2,3-b]pyrid-5-yl)-1H-imidazol-1-yl)-4-methylphenyl)-5-(tert-butyl)isoxazole-3-carboxamide] | 140 nM | 300 nM |  | 3700 nM
